The results in this text go back to PubChem BioAssay (NCI).

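Briefly, cells in 96-well plates were exposed to five compound concentrations for 48 h, and endpoints were estimated by linear interpolation. At the TGI there is no net growth.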

Common to all, as to assay: DTP human tumour cell line panel, 48 h
Assay [1] concerns MOLT-4 leukemia.
Assay [2] has as its system HOP-62 NSCLC.
Assay [3] relates to SF-295 CNS.
Assay [4] deals with SR leukemia.
Assay [5] concerns SF-268 CNS.
Assay [6] concerns HOP-92 NSCLC.
Assay [7] deals with T-47D breast.
In assay [8] the test system is NCI-H23 lung.
The subject of assay [9] is SK-MEL-5 melanoma.
For assay [10], the system named is BT-549 breast.

The TGI is the concentration at which net growth stops. High values mean lower sensitivity of the cells, low ones greater sensitivity of the cells. For the compound `CC(C)(C)C(O)CC(O)(C(F)(F)F)C(F)(F)F` (stereo not drawn), the TGI in assay [1], in [2], in assay [3], in assay [4], in assay [5] and in assay [6] was greater than 100 µM in each case. The TGI in assay [7], in assay [8] and in [9] was greater than 100 µM in each case.

As for `O=C(O)CCNc1ncc2c(n1)-c1ccccc1OC2`, the concentration for total growth inhibition (TGI) in [1], in assay [2], in assay [3], in [4], in [5] and in [6] was greater than 100 µM in each case. For the same compound, the TGI in assay [8] and in [9] was greater than 100 µM each time.

As to `CCOC(CN(C)C(=O)Nc1ccc(Cl)c(Cl)c1)OCC`, the TGI in assay [1], in assay [2], in assay [3], in assay [4], in [5] and in assay [6] was greater than 10 µM throughout. Also, the TGI in [7], in assay [8] and in [9] was greater than 10 µM throughout.

Regarding `O=C1C(Cl)=C(N2CCN(CCOCCO)CC2)C(=O)c2ccccc21`, the TGI in assay [1] was 5.99 µM; in assay [3], 32 µM; in [4], 8.51 µM; in assay [5] it was 30.3 µM; in [6], 2.89 µM; in [7], 3.34 µM. For the same compound, the TGI was 28 µM in assay [8] and 28.2 µM in [9].

`Cc1ccc(N=NN(C)C(C)C(O)Cc2ccccc2)cc1` (stereo not drawn): the total growth inhibition concentration (TGI) in [10] was greater than 100 µM; in [1], greater than 100 µM; in [2], greater than 100 µM; in [3], greater than 100 µM; in [5] it was greater than 100 µM; in assay [7], 88.5 µM. Moreover, the TGI in assay [8] and in assay [9] was greater than 100 µM each time.

For `O=S(=O)(Nc1nccs1)c1ccc([As](=O)(O)O)cc1`, the TGI in assay [10], in assay [1], in assay [2], in assay [3], in assay [5] and in assay [6] was greater than 100 µM throughout. For the same compound, the TGI in assay [7], in assay [8] and in assay [9] was greater than 100 µM each time.

Turning to `O=c1ccn(Cc2ccccc2CCl)c(=O)[nH]1`, the TGI was greater than 100 µM in [1]; 52.7 µM in assay [2]; 64.1 µM in assay [3]; 73.4 µM in [4]; 75.8 µM in assay [5]; greater than 100 µM in [6]. The figures for the concentration for total growth inhibition (TGI) in [7], in assay [8] and in [9] were greater than 100 µM, 40.1 µM and 23.3 µM, respectively.

For the compound `O=c1oc2ccc3ccccc3c2cc1-c1nc(-c2ccc([N+](=O)[O-])cc2)n[nH]1`, the total growth inhibition concentration (TGI) in assay [10] was 79.8 µM; in assay [1] it was greater than 100 µM; in assay [2], 42 µM; in assay [3], greater than 100 µM; in assay [4] it was greater than 100 µM; in assay [5] it was 4.56 µM. In addition, the values for the TGI in assay [8] and in assay [9] were 45.8 µM and greater than 100 µM, respectively.

Turning to `CC1OC(OC2C(OC(=O)[C@]34CCC(C)(C)CC3C3=CCC5[C@@]6(C)C[C@H](O)[C@H](OC7OC(COC8OC(CO)C(O)C(O)C8O)C(O)C(O)C7O)[C@@](C)(C(=O)O)C6CC[C@@]5(C)C3(C)CC4)OCC(O)C2O)C(O)C(O)C1OC1OCC(O)C(O)C1O` (stereo partly drawn), the total growth inhibition concentration (TGI) in [1], in [2], in assay [3], in assay [5], in [6] and in assay [8] was greater than 100 µM throughout. The TGI in assay [9] is greater than 100 µM.

`O=C1NC(=S)N/C1=C\c1ccc(Cl)cc1`: the total growth inhibition concentration (TGI) in [10], in [1], in [2], in assay [3], in [5] and in assay [7] was greater than 100 µM each time. Moreover, the concentration for total growth inhibition (TGI) in assay [8] and in assay [9] was greater than 100 µM in each case.

Consider `Cc1ccc(S(=O)(=O)NN=C2C(C)(C)CC2(C)C)cc1`, for which the concentration for total growth inhibition (TGI) in assay [1], in assay [2], in [3], in [5], in assay [6] and in [7] was greater than 100 µM throughout. In addition, the TGI in assay [8] and in assay [9] was greater than 100 µM throughout.

Consider `CSCCC(NC(=O)Cc1ccc(C(=O)c2ccccc2)cc1)C(=O)N1CCN(CCCCN2c3ccccc3Sc3cc(N=[N+]=[N-])ccc32)CC1` (stereo not drawn), for which the concentration for total growth inhibition (TGI) in assay [10], in assay [1], in assay [2], in assay [3], in [5] and in assay [6] was greater than 100 µM in each case. Besides, the TGI in [8] and in assay [9] was greater than 100 µM in each case.

For `Cc1cc(N(CCC#N)CCC#N)ccc1/C=C1N=C(/C=C/c2ccccc2)N(c2ccc(S(N)(=O)=O)cc2)C\1=O`, the TGI in assay [1], in assay [2], in assay [3], in assay [4], in assay [5] and in assay [6] was greater than 100 µM each time. Besides, the TGI in assay [8] and in assay [9] was greater than 100 µM in each case.

`Fc1ccc(Oc2nc3ccccc3nc2-c2ccccc2)cc1`: the concentration for total growth inhibition (TGI) in assay [10], in assay [1], in [2], in [3], in assay [4] and in assay [5] was greater than 100 µM throughout. Also, the TGI in assay [6], in [8] and in assay [9] was greater than 100 µM throughout.

Turning to `CCC(=O)N(c1ccccc1)C(C)CN1CCC(O)(c2cccc(C(F)(F)F)c2)CC1` (stereo not drawn), the TGI in assay [1] is 44.5 µM; in assay [2], 42.3 µM; in assay [3] it was greater than 100 µM; in [6], 61.6 µM; in assay [7], 98.4 µM; in assay [8] it was 47.5 µM. This compound had a TGI in assay [9] of 34.9 µM.
